According to patent US20240360153A1 (Regeneron Pharmaceuticals, Inc., priority 2023, published 2024):

Legend:
[1] = test system: S6K1 (Thr389) phosphorylation (mTORC1 activity) in wild-type (WT) 293T cells; experiment: Inhibition of S6K1 (Thr389) phosphorylation in wild-type 293T cells (ELISA); assay type: cell-based, human; details: for IC50: Homo sapiens, HEK-293T, 2 h, wild-type 293T cells, 2 hours treatment; for fold lower potency compared with RAD001 (by IC50) / extent of inhibition of S6K1 (Thr389) phosphorylation: wild-type cells; for extent of inhibition of S6K1 (Thr389) phosphorylation: with increasing concentrations
Protocol: (§1) Treatment of wild-type (WT) and FKBP12 knock-out 293T cells with RAD001 (everolimus) and test compounds. WT and FKBP12 knock-out 293T cells were cultured in Dulbecco's modified Eagle's medium (Gibco #11971-025) supplemented with 10% fetal bovine serum (Gibco #26140-079). Cells were plated at a density of 15,000 cells per well in poly-D-Lysine coated 96-well plates (Corning, #354461) and were incubated at 37° C., 5% CO2 for 24 hours until they reached ˜80% confluence. Cells were treated with RAD001 or test compounds reconstituted in dimethyl sulfoxide (DMSO) using a 8-11-point dose range, from 0.001 pM to 10 μM. All treatments were performed in duplicates for 2 hours at 37° C. Cell culture media supplemented with blank dimethyl sulfoxide (DMSO) was used as a negative control for all compounds. Phosphorylated amounts of S6K1 (Thr389) were measured using an ELISA kit (Invitrogen 85-86052-11), following the manufacture's protocol.
(§2) S6K1 is an immediate downstream target of mTORC1 and therefore phosphorylation of S6K1 at Thr389 residue is used to measure mTORC1 activity (PMID: 16968213). Amounts of phosphorylated S6K1 (Thr389) were measured in WT and FKBP12 knock-out 293T cells treated with either RAD001 or Compound 44 (FIGS. 1A and 1B), and Compound 45 (FIGS. 1C and 1D).

[2] = In vitro microsomal metabolic stability, human liver microsomes; assay type: in vitro ADME; details: for Remaining (T = 60 min) / Remaining (T = NCF60 min) / half-life at 1 µM: Human liver microsomes; for Remaining (T = 60 min): with NADPH; for Remaining (T = NCF60 min): without NADPH regenerating system; for Remaining (T = 60 min) / Remaining (T = NCF60 min): 60 min; for CLint scaled at 1 µM / microsomal CLint at 1 µM: human, human liver microsomes; for CLint scaled at 1 µM / microsomal CLint at 1 µM / half-life at 1 µM: pH 7.2; for half-life at 1 µM: 0.5 mg/ml protein, NADPH
Protocol: (§3) Buffers: PBK Buffer: 50 mM potassium phosphate buffer (PPB), pH 7.2, with 3.3 mM Magnesium Chloride.
(§4) TA Intermediate solution: Compound or control (3 μL) diluted from stock solution (10 mM) with 297 μL 90.0% methanol/water. (Conc: 100 μM; 1.0% DMSO, 89.1% MeOH).
(§5) Control cocktail intermediate solution: Each control (3 μL) was diluted with 291 μL 90.0% methanol/water.
(§6) Diluted TA intermediate stock solution and PC control stock were made by transferring 80 μL of 100 μM TA stock solution into new tubes and then adding 720 μL of 1.0% DMSO in 50 mM potassium phosphate buffer (conc. 10 μM; 1.0% DMSO, 8.91% MeOH).
(§7) Preparation of Liver microsomes working solution (1.25×)(final Conc.: 0.5 mg/mL).
(§8) Acetonitrile:methanol (9:1, v/v)(including 200 ng/mL tolbutamide and 200 ng/ml labetalol hydrochloride as internal standards).
(§9) Working solution: Intermediate solution (80 μL) was diluted with 720 μL 1.0% DMSO in 50 mM potassium phosphate buffer (Conc.: 10 μM; 1.0% DMSO, 8.91% MeOH)
(§10) Procedure: Stock solution was added to each of the time point plates. Microsomes solution (360 μL/well), TA/PC (45 μL/well), and NADPH (45 μL/well) min. (Conc: 1.0 μM, 0.10% DMSO, 0.891% MeOH) were added to the incubation plates. To the T60 and NCF60 plate, TA (15 ul/well) and Microsomes (120 ul) were added. To the blank plate, microsome (50 ul/well) with stop solution (150 ul/well) were added. At the end of each time point, 50 ul/well was aliquoted from the incubation plate. The sampling plates were shaken for approximately 10 min. on a shaker and the samples were centrifuged at 4000 rpm for 15 min. Supernatant (120 μL) was transferred for LC/MS/MS.Compounds from Table 3 were incubated at 37° C. with liver microsomes (pooled from multiple donors) at 1 μM in the presence of a NADPH regenerating system at 0.5 mg/ml microsomal protein. Positive controls included testosterone (3A4 substrate), propafenone (2D6) and diclofenac (2C9), which were incubated with microsomes in the presence of an NADPH regenerating system. At time points (0, 5, 10, 20, 30 and 60 minutes), samples were removed and immediately mixed with cold acetonitrile containing the internal standard (IS). Test compounds incubated with microsomes without the NADPH regenerating system for 60 min are also included. A single point for each test condition (n=1) was obtained, and samples were analyzed by LC/MS/MS. Disappearance of the test compound was assessed based on peak area ratios of analyte/IS (no standard curve).

[3] = test system: S6K1 (Thr389) phosphorylation (mTORC1 activity) in FKBP12 knock-out 293T cells; experiment: Inhibition of S6K1 (Thr389) phosphorylation in FKBP12 knock-out 293T cells (ELISA); assay type: cell-based, human; details: for selectivity for FKBP12 compared with RAD001 (in words): wild-type versus FKBP12 knock-out cells
From the text: Example Generation of FKBP 12 knock-out cells. A CRISPR/Cas9 system was used to deliver ribonucleoprotein complexes containing guide RNA sequences that target FKBP12 (ac[…], location 1369062; ccactactcac[…], location 1369181) in HEK293T cells using Lipofectamine CRISPRMAX transfection reagent (Invitrogen CMAX00008). Cell clones were screened by immunoblotting with anti-FKBP-specific antibody (Novus, NB300-508). Single cells that were deficient for FKBP12 protein were selected and cloned.
as §1, §2

[4] = In vitro microsomal metabolic stability, CD-1 mouse liver microsomes; assay type: in vitro ADME; details: for microsomal CLint at 1 µM / CLint scaled at 1 µM: CD-1, mouse, mouse liver microsomes, pH 7.2; for half-life at 1 µM: CD-1, pH 7.2, 0.5 mg/ml protein, NADPH; for half-life at 1 µM / Remaining (T = 60 min) / Remaining (T = NCF60 min): Mouse liver microsomes; for Remaining (T = 60 min): with NADPH; for Remaining (T = NCF60 min): without NADPH regenerating system; for Remaining (T = 60 min) / Remaining (T = NCF60 min): 60 min
Protocol: as §3, §4, §5, §6, §7, §8, §9, §10

Remaining (T = 60 min) [2]	Remaining (T = NCF60 min) [2]	CLint scaled at 1 µM [2]	microsomal CLint at 1 µM [2]	half-life at 1 µM [2]	microsomal CLint at 1 µM [4]	half-life at 1 µM [4]	Remaining (T = 60 min) [4]	Remaining (T = NCF60 min) [4]	CLint scaled at 1 µM [4]	Structure (SMILES)	IC50 [1]	fold lower potency compared with RAD001 (by IC50) [1]	extent of inhibition of S6K1 (Thr389) phosphorylation [1]	inhibition at 10 µM ([3]; Homo sapiens, HEK-293T, FKBP12 knock-out cells, 10 μM (highest tested concentration))	selectivity for FKBP12 compared with RAD001 (in words) [3]	inhibition of S6K1 (Thr389) phosphorylation in the absence of FKBP12 (in words) ([3]; FKBP12 knock-out cells)	inhibition at 1 µM ([3]; Homo sapiens, HEK-293T, FKBP12 knock-out cells, 1 μM)
18%	99%	54.7 mL/min/kg	60.8 µL/min/mg	22.8 min	< 9.6 µL/min/mg	> 145 min	89%	112%		CO[C@@H]1C[C@H](C[C@@H](C)[C@@H]2CC[C@H](C)/C=C(\C)[C@@H](O)[C@@H](OC)C(=O)[C@H](C)C[C@H](C)/C=C/C=C/C=C(\C)C(Nc3cccc(C)c3)C[C@@H]3CC[C@@H](C)[C@@](O)(O3)C(=O)C(=O)N3CCCCC3C(=O)O2)CC[C@H]1O (stereo partly drawn) [Compound 50, (3S,6S,7E,9R,10R,12R,14S,15E,17E,19E,23S,26R,27R,34aS)-9,27-dihydroxy-3-((R)-1-((1S,3R,4R)-4-hydroxy-3-methoxycyclohexyl)propan-2-yl)-10-methoxy-6,8,12,14,20,26-hexamethyl-21-(m-tolylamino)-5,6,9,10,12,13,14,21,22,23,24,25,26,27,32,33,34,34a-octadecahydro-3H-23,27-epoxypyrido[2,1-c][1]oxa[4]azacyclohentriacontine-1,11,28,29(4H,31H)-tetraone]	5.72 nM	15 fold	near complete inhibition	12%	selective to FKBP12		
15%	102%	59.6 mL/min/kg	66.2 µL/min/mg	20.9 min	10.7 µL/min/mg	130 min	67%	139%	42.3 mL/min/kg	CO[C@@H]1C[C@H](C[C@@H](C)[C@@H]2CC[C@H](C)/C=C(\C)[C@@H](O)[C@@H](OC)C(=O)[C@H](C)C[C@H](C)/C=C/C=C/C=C(\C)C(Nc3ccc(C)cc3)C[C@@H]3CC[C@@H](C)[C@@](O)(O3)C(=O)C(=O)N3CCCCC3C(=O)O2)CC[C@H]1O (stereo partly drawn) [Compound 49, (3S,6S,7E,9R,10R,12R,14S,15E,17E,19E,23S,26R,27R,34aS)-9,27-dihydroxy-3-((R)-1-((1S,3R,4R)-4-hydroxy-3-methoxycyclohexyl)propan-2-yl)-10-methoxy-6,8,12,14,20,26-hexamethyl-21-(p-tolylamino)-5,6,9,10,12,13,14,21,22,23,24,25,26,27,32,33,34,34a-octadecahydro-3H-23,27-epoxypyrido[2,1-c][1]oxa[4]azacyclohentriacontine-1,11,28,29(4H,31H)-tetraone]	9.5 nM	29 fold	near complete inhibition		relatively more selective to FKBP12 compared with RAD001	did not inhibit S6K1 (Thr389)phosphorylation at any tested concentrations	
0.20%	89%	182 mL/min/kg	202 µL/min/mg	6.86 min	64.3 µL/min/mg	21.5 min	15%	85%	255 mL/min/kg	CO[C@@H]1C[C@H](C[C@@H](C)[C@@H]2CC[C@H](C)/C=C(\C)[C@@H](O)[C@@H](OC)C(=O)[C@H](C)C[C@H](C)/C=C/C=C/C=C(\C)C(NS(=O)(=O)c3cnoc3C)C[C@@H]3CC[C@@H](C)[C@@](O)(O3)C(=O)C(=O)N3CCCCC3C(=O)O2)CC[C@H]1O (stereo partly drawn) [Compound 51, N-((3S,6S,7E,9R,10R,12R,14S,15E,17E,19E,23S,26R,27R,34aS)-9,27-dihydroxy-3-((R)-1-((1S,3R,4R)-4-hydroxy-3-methoxycyclohexyl)propan-2-yl)-10-methoxy-6,8,12,14,20,26-hexamethyl-1,11,28,29-tetraoxo-1,4,5,6,9,10,11,12,13,14,21,22,23,24,25,26,27,28,29,31,32,33,34,34a-tetracosahydro-3H-23,27-epoxypyrido[2,1-c][1]oxa[4]azacyclohentriacontin-21-yl)-5-methylisoxazole-4-sulfonamide]	4.53 nM	12 fold	near complete inhibition		not completely selective to FKBP12	no further inhibition at 10 μM	18%
55%	93%	18 mL/min/kg	20 µL/min/mg	69.5 min	6.4 µL/min/mg	217 min	83%	96%	25.3 mL/min/kg	CO[C@@H]1C[C@H](C[C@@H](C)[C@@H]2CC[C@H](C)/C=C(\C)[C@@H](O)[C@@H](OC)C(=O)[C@H](C)C[C@H](C)/C=C/C=C/C=C(\C)C(Nc3cccc(OC(F)(F)F)c3)C[C@@H]3CC[C@@H](C)[C@@](O)(O3)C(=O)C(=O)N3CCCCC3C(=O)O2)CC[C@H]1O (stereo partly drawn) [Compound 58, (3S,6S,7E,9R,10R,12R,14S,15E,17E,19E,23S,26R,27R,34aS)-9,27-dihydroxy-3-((R)-1-((1S,3R,4R)-4-hydroxy-3-methoxycyclohexyl)propan-2-yl)-10-methoxy-6,8,12,14,20,26-hexamethyl-21-((3-(trifluoromethoxy)phenyl)amino)-5,6,9,10,12,13,14,21,22,23,24,25,26,27,32,33,34,34a-octadecahydro-3H-23,27-epoxypyrido[2,1-c][1]oxa[4]azacyclohentriacontine-1,11,28,29(4H,31H)-tetraone]	2.94 nM	35 fold	near complete inhibition		relatively not FKBP12 selective	inhibited the mTORC1 signaling in a dose dependent manner	
